In PubChem BioAssay (NCI) one finds GI50 and TGI data, which are given here for 15 compounds.

Common to all, as to experiment: NCI anticancer screen, dose series, 48 h
Assay [1] relates to SNB-75 CNS.
Assay [2] relates to CCRF-CEM leukemia.
The subject of assay [3] is OVCAR-5 ovarian.
The test system of assay [4] is MDA-MB-231 breast.
For assay [5], the system named is SNB-19 CNS.
In assay [6] the test system is DU-145 prostate.
Assay [7] has as its system OVCAR-8 ovarian.
The subject of assay [8] is KM12 colon.
Assay [9] relates to SK-MEL-28 melanoma.
Assay [10] deals with SF-268 CNS.

Where “and” joins values, the source holds several entries; their conditions need not be identical. Equal entries are not always repeated.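 Compound exposure: 48 hours, 5 concentrations, 96-well plates. GI50 marks 50% less growth. TGI: concentration producing complete growth inhibition.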

Take `COc1cc(C2NC(=O)c3ccccc3N2)ccc1OCCCCCOc1c(OC)cc(C2=NOC(c3cc(OC)c(OC)c(OC)c3)C2)cc1OC` (centres undefined): the GI50 in assay [1] is 19.6 µM; in assay [2], 0.627 µM; in assay [3] it was 33.9 µM; in assay [4] it was 14.8 µM; in [5] it was 16.6 µM; in assay [6], 22.5 µM. In addition, the GI50 is 25.2 µM in assay [7], 7.59 µM in [8], 4.13 µM in assay [9] and 20.8 µM in assay [10]. In addition, the TGI was over 100 µM in assay [1]; over 77.6 µM in assay [2]; over 94.3 µM in [3]; over 75.4 µM in assay [4]; over 88.8 µM in [5]; over 82.7 µM in assay [6]. Further, the TGI was over 100 µM in assay [7], 98.8 µM in assay [8], over 100 µM in [9] and over 100 µM in assay [10].

In the case of `C[C@]12CC[C@H]3[C@@H](CC=C4C[C@@H](O)CC[C@@]43C)[C@@H]1CC[C@@H]2N(CCO)CCO`, the TGI in assay [1], in [2], in assay [3], in assay [4], in [5] and in assay [6] was over 100 µM each time. The TGI in assay [7], in [8], in [9] and in assay [10] was over 100 µM each time.

Take `Oc1c(CN2CCC(N3CCCCC3)CC2)cc(Cc2cc(CN3CCC(N4CCCCC4)CC3)c(O)c3ncccc23)c2cccnc12`: the GI50 in [1] was 1.65 µM; in assay [2], 0.403 µM; in [3], 2.74 µM; in [4] it was 0.329 µM; in assay [5], 2.65 µM; in assay [6], 0.871 µM. In addition, the GI50 in [7] is 1.83 µM; in [8] it was 0.677 µM; in assay [9], 1.24 µM; in assay [10], 0.537 µM. For the same compound, the TGI in [1] was determined as 13.4 µM; in assay [2], 3.51 µM; in assay [3] it was 20.3 µM; in assay [4], 14.4 µM; in [5] it was 22.5 µM; in [6], 16.1 µM. For the same compound, the TGI in assay [7] worked out at 12.3 µM; in assay [8], 14.6 µM; in assay [9] it was 5.77 µM; in assay [10], 13.8 µM.

Take `CC[C@@H]1CN(C)[C@H]2Cc3c([nH]c4ccccc34)C(=O)C[C@H]1C2C(=O)OC` (some centres undefined): the TGI in assay [1], in assay [2], in assay [3], in [4], in assay [5] and in [6] was over 100 µM each time. Moreover, the TGI in [7], in [8], in assay [9] and in assay [10] was over 100 µM each time.

Consider `FC(F)(F)c1cccc(Nc2nccc(-c3cnn4nc(-c5ccccc5)ccc34)n2)c1`, for which the GI50 in assay [1] is 3.91 µM; in assay [2], over 17.9 µM; in [3] it was over 22.9 µM; in [4], 5.58 µM; in [5], over 17.1 µM; in assay [6] it was 7.1 µM. Further, the GI50 is 6.54 µM in assay [7], 6.46 µM in assay [8], 8.11 µM in assay [9] and 10.3 µM in [10]. Further, the TGI was 9.6 µM in [1]; over 25 µM in assay [2]; over 25 µM in assay [3]; over 20.9 µM in assay [4]; over 25 µM in [5]; over 17.4 µM in assay [6]. Moreover, the TGI in assay [7] is over 18.4 µM; in assay [8], over 19.6 µM; in assay [9], over 20.4 µM; in assay [10], over 19.2 µM.

On to `COc1cc([N+](=O)[O-])cc2c3c(n(C)c12)[C@@]1(C)CCC2c4ccc(OCc5ccccc5)cc4CCC2C1C3` (some centres undefined), for which the GI50 in [1] is 23.9 µM; in assay [2], over 100 µM; in assay [3], over 100 µM; in [4], 62.6 µM; in assay [5] it was 46.5 µM; in assay [6], over 100 µM. Moreover, the GI50 in assay [7], in assay [8], in assay [9] and in assay [10] was over 100 µM in each case. Also, the TGI was 63.9 µM in assay [1]; over 100 µM in [2]; over 100 µM in assay [3]; over 100 µM in [4]; over 100 µM in assay [5]; over 100 µM in assay [6]. In addition, the TGI in assay [7], in [8], in [9] and in [10] was over 100 µM in each case.

With `O=C1Nc2c(C(F)(F)F)cccc2[C@]1(c1ccc(O)cc1)c1ccc(OC(F)(F)F)cc1`, the GI50 is 5.78 µM in assay [1]; 11.7 µM in [2]; 12 µM in [3]; 13 µM in assay [4]; 14.1 µM in assay [5]; 11.7 µM in assay [6]. The GI50 is 5.29 µM in [7], 11.3 µM in assay [8], 15 µM in assay [9] and 8.73 µM in assay [10]. Also, the TGI in assay [1] worked out at 19.5 µM; in assay [2] it was 49.9 µM; in assay [3], 24.4 µM; in assay [4], 26.2 µM; in [5], 27.2 µM; in assay [6] it was 23.9 µM. The TGI in assay [7] turned out to be 21.8 µM; in [8], 24.2 µM; in assay [9] it was 28.8 µM; in assay [10], 24 µM.

On to `Oc1ccc(CN2CCC(N3CCCCC3)CC2)c2cccnc12`, for which the GI50 in assay [1] is 2.85 µM; in [2] it was 36.1 µM; in assay [3] it was 45.4 µM; in assay [4] it was 22.4 µM; in [5] it was 21.6 µM; in [6], 6.64 µM. The GI50 in assay [7] is 7.69 µM; in assay [8] it was 30.3 µM; in assay [9], 21.4 µM; in [10], 7.06 µM. The TGI in assay [1], in assay [2], in [3], in assay [4], in assay [5] and in assay [6] was over 100 µM each time. For the same compound, the TGI in [7], in assay [8], in [9] and in assay [10] was over 100 µM throughout.

With `CC[C@@H]1C(=O)N(C)c2cnc(Nc3ccc(C(=O)NC4CCN(C)CC4)cc3OC)nc2N1C1CCCC1`, the GI50 in assay [1] was 0.00411 µM and < 0.0112 µM; in [2] it was 0.00236 µM and < 0.01 µM; in [3], 0.00408 µM and < 0.01 µM; in assay [4], 0.00552 µM; in assay [5], 0.0058 µM and < 0.01 µM; in assay [6], 0.00363 µM. In addition, the GI50 is 0.00414 µM in assay [7]; 0.00346 µM and < 0.01 µM in assay [8]; 0.0156 µM and < 0.01 µM in assay [10]. Further, the TGI in [1] is 0.233 µM and 0.17 µM; in assay [2], 2.9 µM and 1.26 µM; in assay [3], > 10 µM and 11.8 µM; in assay [4] it was 3.21 µM; in assay [5], > 10 µM and 20.3 µM; in [6], over 10 µM. The TGI was over 10 µM in [7]; > 10 µM and 5.65 µM in assay [8]; 3.32 µM and 2.59 µM in assay [9]; > 10 µM and 7.8 µM in assay [10].

For `Oc1ccc(NCc2nc3ccccc3[nH]2)cc1`, the GI50 is 18 µM in assay [1]; over 100 µM in assay [2]; over 100 µM in assay [3]; 38.4 µM in [4]; 33.6 µM in assay [5]; 75.9 µM in [6]. For the same compound, the GI50 is 26.8 µM in assay [7], over 100 µM in [8], 38.4 µM in [9] and 35.3 µM in [10]. Also, the TGI in [1] is 62.5 µM; in assay [2], over 100 µM; in [3], over 100 µM; in assay [4], over 100 µM; in assay [5], over 100 µM; in [6], over 100 µM. For the same compound, the TGI in assay [7], in [8], in assay [9] and in [10] was over 100 µM in each case.

Turning to `C=C1C(=O)O[C@H]2[C@H]1CC/C(COC(=O)c1ccc3ccccc3c1)=C\CC[C@@]1(C)O[C@@H]21`, the GI50 in [1] was 1.44 µM; in assay [2], 0.28 µM; in assay [3], 1.59 µM; in [4], 1.35 µM; in assay [5], 1.36 µM; in assay [6], 0.945 µM. Besides, the GI50 in assay [7] was 1.1 µM; in assay [8], 1.48 µM; in assay [9] it was 1.47 µM; in assay [10], 1.28 µM. Also, the TGI in assay [1] was determined as 3.05 µM; in assay [2], 1.38 µM; in assay [3], 3.57 µM; in [4], 3 µM; in assay [5], 2.75 µM; in [6], 2.23 µM. Besides, the TGI is 2.56 µM in [7], 3.16 µM in [8], 2.96 µM in assay [9] and 2.75 µM in assay [10].

With `C=C1C(=O)O[C@H]2[C@H]1CC/C(Cn1cc(-c3ccc(OC)cc3)nn1)=C\CC[C@@]1(C)O[C@@H]21`, the GI50 in [1] was 1.47 µM; in assay [2], 0.29 µM; in assay [3], 1.71 µM; in assay [4], 1.44 µM; in assay [5], 6.92 µM; in assay [6], 1.11 µM. Further, the GI50 was 2.59 µM in assay [7], 3.51 µM in assay [8], 0.822 µM in assay [9] and 2.07 µM in [10]. Further, the TGI in assay [1] turned out to be 3.28 µM; in assay [2], 0.823 µM; in assay [3], 3.66 µM; in assay [4], 3.15 µM; in assay [5], 21.4 µM; in [6] it was 2.32 µM. Moreover, the TGI in assay [7] turned out to be 7.67 µM; in [8], 14.2 µM; in [9], 2.41 µM; in assay [10], 5.23 µM.

Turning to `O=c1[nH]ncc(Br)c1Br`, the GI50 in assay [1] is 3.35 µM; in assay [2] it was 2.16 µM; in [3], 1.69 µM; in assay [4] it was 1.68 µM; in [5], 5.32 µM; in assay [6] it was 3.31 µM. The GI50 is 2.86 µM in assay [7], 2.71 µM in assay [8], 1.74 µM in assay [9] and 3.02 µM in assay [10]. Besides, the TGI in assay [1] turned out to be 16 µM; in assay [2], 5.35 µM; in [3], 3.08 µM; in assay [4], 3.56 µM; in [5], 18.9 µM; in assay [6], 15.3 µM. For the same compound, the TGI was determined as 10.8 µM in assay [7], 13.7 µM in assay [8], 3.12 µM in assay [9] and 12.6 µM in [10].

Take `O=C1c2cc(Cl)ccc2S(=O)(=O)c2c(NCCCNCCO)nc3ccccc3c21`: the GI50 in [1] is 2.15 µM; in assay [2], 0.648 µM; in assay [3] it was 1.65 µM; in assay [4] it was 1.49 µM; in [5] it was 3.77 µM; in assay [6], 1.25 µM. The GI50 is 1.86 µM in assay [7], 1.59 µM in [8], 1.76 µM in assay [9] and 1.7 µM in [10]. Moreover, the TGI in [1] worked out at 9.35 µM; in assay [2], 2.74 µM; in [3], 3.32 µM; in [4], 2.94 µM; in [5] it was 14.4 µM; in assay [6] it was 2.52 µM. Besides, the TGI in assay [7] was determined as 4.53 µM; in assay [8], 3.3 µM; in assay [9] it was 3.39 µM; in assay [10], 4.37 µM.

For the compound `COc1ccc(/C=C/c2nccc3ccccc23)cc1OC`, the TGI in [1], in [2], in assay [3], in [4], in assay [5] and in assay [6] was over 10 µM in each case. Besides, the TGI in [7], in assay [8], in assay [9] and in [10] was over 10 µM throughout.
